{
  "source": "patent US20170128514A1",
  "about": "“PHARMACEUTICAL COMPOSITION FOR TREATING CARDIO-CEREBROVASCULAR DISEASES AND METHOD FOR PREPARING THE SAME” (priority 2014, published 2017)",
  "origin": "cited, not measured here",
  "key": {"[1]": {"system": "thrombocytopenia caused by heparin"}, "[2]": {"system": "acute coronary syndrome (ACS)", "conditions": "human, in vivo"}},
  "data": [
    {"substance": "hirudin", "values": [
      {"measurement": "patients with blood platelets recovered and normal", "setting": "[1]; 14.4 hrs. after the treatment", "result": 88.7, "unit": "%"},
      {"measurement": "bleeding", "setting": "[1]; in vivo", "result": "bleeding only occurs in a dose much larger than the required dose for anti-coagulation"},
      {"measurement": "efficacy in treating acute coronary syndrome (ACS) compared with heparin", "setting": "[2]", "result": "more significant than the heparin"}
    ]}
  ]
}
